The nature of data set [1]: Blood partitioning. Conditions: human whole blood.
Data set [2] can be described thus: HPβCD-FL118 complex dissolution test.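 Note: 20 mL buffer stirred at 100 rpm.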 It is filed as physicochemical. Conditions: 37° C. How it is done:
The collected samples were analyzed for the concentrations of the supernatants by HPLC.

Data set [3] is described as follows: in vitro. Conditions: both, human, s9.
Data set [4] is described as follows: Liver microsome stability. Conditions: human liver microsome; control compound.
A short description of data set [5]: in vitro.
Data set [6] has as its target DDX5 (Homo sapiens, UniProt P17844). The data set can be described thus: Isothermal titration calorimetry (ITC), Flag-DDX5. It counts as binding. Conditions: ITC, 25° C., 1×PBS pH7.4 with 8% DMSO.
In data set [7] the test system is CYP3A. As to the kind of experiment: in vitro. Conditions: human, microsomes, pH 7.4. The procedure: (§1) The CYP reaction was initiated by adding a CYP probe substrate and incubating at 37° C. for 10-20 minutes, depending on the individual CYP isoform. The reaction was terminated with the addition of 400 μL ice-cold acetonitrile (ACN). […] Positive controls were performed in parallel using a known inhibitor of the individual CYP isoform. […] The samples were then transferred to 96-well plates and analyzed by LC-MS/MS (Appendix 1).

Data set [8] concerns the target T1, CYP2B6 (Homo sapiens, UniProt P20813).
T1 sequence (P20813 1-491): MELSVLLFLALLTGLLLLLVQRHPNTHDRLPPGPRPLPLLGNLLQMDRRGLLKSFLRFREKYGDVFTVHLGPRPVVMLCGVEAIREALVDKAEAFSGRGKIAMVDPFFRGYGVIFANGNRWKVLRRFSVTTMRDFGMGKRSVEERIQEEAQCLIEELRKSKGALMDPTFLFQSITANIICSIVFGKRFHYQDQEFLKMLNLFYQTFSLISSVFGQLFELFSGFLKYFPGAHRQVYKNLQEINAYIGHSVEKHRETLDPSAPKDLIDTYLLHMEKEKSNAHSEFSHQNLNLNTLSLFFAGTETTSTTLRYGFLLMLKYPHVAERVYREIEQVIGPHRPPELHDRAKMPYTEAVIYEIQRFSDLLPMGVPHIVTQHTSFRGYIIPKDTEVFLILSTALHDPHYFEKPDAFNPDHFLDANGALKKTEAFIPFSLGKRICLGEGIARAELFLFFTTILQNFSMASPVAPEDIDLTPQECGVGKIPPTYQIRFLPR
The data set can be described thus: in vitro. Conditions: human, microsomes, pH 7.4. How it is done:
as §1

Data set [9] deals with CRPC LAPC9 tumors. As to the kind of experiment: LAPC9 CRPC tumor model. It is filed as in vivo, SCID mice. Conditions: 10 mg/kg i.p., 6 times over 2 weeks.
Data set [10] deals with CYP2B6 mRNA. The data set can be described thus: CYP induction (mRNA) in fresh human hepatocytes. Conditions: human. The source says: (2) CYP positive inducers (Table 58a) and Williams' Medium E (WME) were purchased from Sigma-Aldrich (St. Louis, MO, USA). Dulbecco's phosphate-buffered saline (DPBS, pH 7.4) was purchased from Invitrogen (Carlsbad, CA, USA). Hepatocyte culture medium (serum-free) for CYP induction was purchased from XenoTech (catalog #K2300, Lenexa, KS, USA). The CellTiter 96 AQueous ONE Solution Cell Proliferation Assay was obtained from Promega (Madison, WI, USA). All other chemicals and reagents were of analytical grade or higher. (3) Fresh human hepatocytes (Table 58b) seeded at ˜0.15 million cells/well in 48-well plates (˜0.75 million cells/mL) were purchased from Thermo Fisher Scientific (Grand Island, NY, USA) and BioreclamationIVT (Baltimore, MD, USA).
Vehicle controls were treated in parallel with hepatocyte culture medium. […] (2) After the CYP induction treatment, the cells were used for a cell viability assay. […] The absorbance of formazan, which is proportional to the number of viable cells, was measured spectrophotometrically using the CellTiter 96 AQueous ONE Solution Cell Proliferation Assay. […] (3) Total RNA was isolated from the treated cells using the RNeasy mini kit (Qiagen, Valencia, CA, USA) and treated with RNase-free DNase (Qiagen) following the manufacturer's protocols. The concentration of RNA was determined using a Qubit Fluorometer with a Qubit RNA HS assay kit (Invitrogen). cDNA was synthesized from up to 1 μg of the total RNA harvested from the cells using a QuantiTect RT kit (Qiagen). Analysis of gene expression by qPCR was performed using the LightCycler 480 System (Roche Diagnostics Corporation, Indianapolis, IN, USA).

In data set [11] the test system is SK-ES-1 OS tumors. As to the kind of experiment: SK-ES-1 osteosarcoma xenograft. It is filed as in vivo, SCID mice. Conditions: weekly×4.
For data set [12], the target named is P-gp (Homo sapiens, UniProt P08183). Conditions: Caco-2; digoxin as substrate; 1.0 μM FL118 or 1.0 μM Valspodar.
Chain of P-gp (P08183 whole entry): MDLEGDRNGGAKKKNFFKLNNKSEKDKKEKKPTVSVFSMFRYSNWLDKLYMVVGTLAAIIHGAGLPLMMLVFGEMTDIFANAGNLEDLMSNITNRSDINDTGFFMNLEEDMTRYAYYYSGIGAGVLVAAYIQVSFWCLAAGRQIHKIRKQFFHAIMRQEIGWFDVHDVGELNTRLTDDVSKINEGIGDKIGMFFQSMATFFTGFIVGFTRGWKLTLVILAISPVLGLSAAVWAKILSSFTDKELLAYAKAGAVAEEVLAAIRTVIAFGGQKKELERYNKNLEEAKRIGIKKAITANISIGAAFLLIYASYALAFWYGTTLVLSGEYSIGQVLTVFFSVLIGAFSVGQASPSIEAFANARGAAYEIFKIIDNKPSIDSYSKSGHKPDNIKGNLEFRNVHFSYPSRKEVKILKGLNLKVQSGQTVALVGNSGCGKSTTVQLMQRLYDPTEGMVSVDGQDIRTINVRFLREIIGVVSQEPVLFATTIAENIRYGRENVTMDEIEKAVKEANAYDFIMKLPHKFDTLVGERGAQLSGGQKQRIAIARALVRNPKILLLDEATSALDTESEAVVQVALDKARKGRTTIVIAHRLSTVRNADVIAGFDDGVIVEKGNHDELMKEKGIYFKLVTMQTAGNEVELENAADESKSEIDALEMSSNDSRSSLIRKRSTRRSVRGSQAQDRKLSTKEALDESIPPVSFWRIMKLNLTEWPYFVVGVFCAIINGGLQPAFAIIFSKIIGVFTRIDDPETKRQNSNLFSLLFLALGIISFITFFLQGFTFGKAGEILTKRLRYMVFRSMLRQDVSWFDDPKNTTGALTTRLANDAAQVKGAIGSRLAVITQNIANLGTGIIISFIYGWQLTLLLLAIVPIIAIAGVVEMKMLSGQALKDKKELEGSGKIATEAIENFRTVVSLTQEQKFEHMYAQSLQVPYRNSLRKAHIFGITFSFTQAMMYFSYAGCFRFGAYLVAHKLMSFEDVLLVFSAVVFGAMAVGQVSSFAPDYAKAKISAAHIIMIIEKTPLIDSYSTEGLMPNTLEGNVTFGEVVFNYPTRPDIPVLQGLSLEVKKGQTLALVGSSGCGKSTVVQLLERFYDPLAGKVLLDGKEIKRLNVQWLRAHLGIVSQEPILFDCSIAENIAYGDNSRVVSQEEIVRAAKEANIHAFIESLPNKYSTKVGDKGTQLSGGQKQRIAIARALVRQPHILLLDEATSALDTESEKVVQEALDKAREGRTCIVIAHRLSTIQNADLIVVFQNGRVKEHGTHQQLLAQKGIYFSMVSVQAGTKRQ
Data set [13] is described as follows: in vitro. Conditions: both, human, whole blood (sodium heparin), pH 7.4.

In general, microsomal CLint refers to the capacity of the preparation to metabolise the compound, expressed as a volume cleared per time. The low end stands for greater metabolic stability, the high end for faster metabolism. The half-life is the time in which the quantity being followed falls by half. Higher therefore signals slow loss. The hepatocyte CLint is the rate of metabolic loss divided by the concentration. The low end stands for slow turnover, the high end for rapid turnover. As usually defined, the Kd is the constant that tells how readily two partners part at equilibrium.

Chain of DDX5 (P17844 whole entry, canonical isoform): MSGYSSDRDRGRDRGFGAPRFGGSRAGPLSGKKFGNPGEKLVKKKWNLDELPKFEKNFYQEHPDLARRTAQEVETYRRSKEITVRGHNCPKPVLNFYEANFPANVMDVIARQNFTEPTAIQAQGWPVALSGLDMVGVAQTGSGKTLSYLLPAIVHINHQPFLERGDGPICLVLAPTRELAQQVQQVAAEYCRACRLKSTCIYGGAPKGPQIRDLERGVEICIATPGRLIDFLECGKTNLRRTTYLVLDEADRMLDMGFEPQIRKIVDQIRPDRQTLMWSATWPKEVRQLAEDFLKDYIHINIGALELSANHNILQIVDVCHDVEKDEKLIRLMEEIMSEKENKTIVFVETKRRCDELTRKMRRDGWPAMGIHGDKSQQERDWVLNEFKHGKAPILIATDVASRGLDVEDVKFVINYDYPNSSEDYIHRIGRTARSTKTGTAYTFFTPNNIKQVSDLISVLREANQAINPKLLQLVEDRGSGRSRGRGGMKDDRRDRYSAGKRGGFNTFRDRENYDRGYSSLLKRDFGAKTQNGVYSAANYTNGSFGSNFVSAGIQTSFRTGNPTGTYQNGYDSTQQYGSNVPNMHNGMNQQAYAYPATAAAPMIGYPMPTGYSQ

As for `NS(=O)(=O)c1cc(C2(O)NC(=O)c3ccccc32)ccc1Cl` (stereo not shown) [Chlorthalido], in data set [1], the “RBC to Plasma Partitioning (KRBC/P)” value came to 19.7.
Consider `CC[C@@]1(O)C(=O)OCc2c1cc1n(c2=O)Cc2cc3cc4c(cc3nc2-1)OCO4` [API], for which the “Concentration (dissolution)” value was determined as 430 ng/mL in [2] (pH 1.2, 5 min); 1550 ng/mL in data set [2] (pH 1.2, 10 min); 470 ng/mL in [2] (pH 1.2, 15 min); 640 ng/mL in data set [2] (pH 1.2, 30 min); 510 ng/mL in [2] (pH 1.2, 45 min); 1430 ng/mL in data set [2] (pH 1.2, 60 min). Also, the “Concentration (dissolution)” value in [2] (pH 1.2, 90 min) worked out at 1360 ng/mL; in [2] (pH 1.2, 120 min), 4470 ng/mL; in data set [2] (pH 6.8, 5 min) it was 960 ng/mL; in data set [2] (pH 6.8, 10 min), 190 ng/mL; in [2] (pH 6.8, 15 min) it was 310 ng/mL; in data set [2] (pH 6.8, 30 min), 1110 ng/mL. In addition, the “Concentration (dissolution)” value came to 310 ng/mL in data set [2] (pH 6.8, 45 min); 900 ng/mL in data set [2] (pH 6.8, 60 min); 970 ng/mL in data set [2] (pH 6.8, 90 min); 1430 ng/mL in data set [2] (pH 6.8, 120 min).
As for `C[C@]12CC[C@H]3[C@@H](CCC4=CC(=O)CC[C@@]43C)[C@@H]1CC[C@@H]2O` [testosterone, reference compound], in [3], the intrinsic clearance (microsomal CLint) stood at 20.7 µL/min/mg. Besides, in [4], the CLint amounted to 0.0478 ml/min/mg protein and the “half-life” value stood at 29 min. Besides, the hepatocyte CLint in [5] (both, human, hepatocytes, pH 7.4) is 212 µL/min/1e6 cells. Also, the “half-life” value in data set [5] (cryopreserved human hepatocytes, control compound) was determined as 2.2 min.
On to `CC[C@@]1(O)C(=O)OCc2c1cc1n(c2=O)Cc2cc3c(CN(C)C)c(O)ccc3nc2-1` [topotecan, reference compound], for which the Kd in data set [6] is no less than 1.08 µM.
`CC(=O)N1CCN(c2ccc(OCC3COC(Cn4ccnc4)(c4ccc(Cl)cc4Cl)O3)cc2)CC1` (stereo not shown) [Ketoconazole]: the “% Inhibition (Positive Control)” value in data set [7] came to 94.5%.
Consider `S=P(N1CC1)(N1CC1)N1CC1` [Thio-TEPA], for which the “% Inhibition (Positive Control)” value in [8] is recorded as 71.5%.
On to `CNC(=O)c1ccc(N2C(=S)N(c3ccc(C#N)c(C(F)(F)F)c3)C(=O)C2(C)C)cc1F` [Enza, enzalutamide, reference compound], for which the antitumor efficacy entry in data set [9] is “not sensitive to Enza”.
With `CCC1(c2ccccc2)C(=O)NC(=O)NC1=O` [Phenobarbital (PB), Phenobarbital, reference compound], in data set [10], the “% of PB-treated Cells” value was determined as 100%.
With `COc1cccc2c1C(=O)c1c(O)c3c(c(O)c1C2=O)C[C@@](O)(C(=O)CO)C[C@@H]3O[C@H]1C[C@H](N)[C@H](O)[C@H](C)O1` [DOX, doxorubicin, reference compound], the antitumor efficacy entry in [11] is listed as “not seen”.
Regarding `C/C=C/C[C@@H](C)C(=O)[C@H]1C(=O)N[C@@H](C(C)C)C(=O)N(C)CC(=O)N(C)[C@@H](CC(C)C)C(=O)N[C@@H](C(C)C)C(=O)N(C)[C@@H](CC(C)C)C(=O)N[C@@H](C)C(=O)N[C@H](C)C(=O)N(C)[C@@H](CC(C)C)C(=O)N(C)[C@@H](CC(C)C)C(=O)N(C)[C@@H](C(C)C)C(=O)N1C` [valspodar, reference compound], in data set [12], the “P-gp Inhibition Potential Classification” value was “Positive (ER≥2.0 without inhibitor, and reduced by ≥50% with inhibitor: Positive)”.
As for `O=c1ccc2ccc(O)cc2o1` [7-hydroxycoumarin, reference compound], the microsomal CLint in [3] came to 57.3 µL/min/mg.
In the case of `NS(=O)(=O)c1cc(C2(O)NC(=O)c3ccccc32)ccc1Cl` (stereo not shown) [chlorthalidone], in data set [13], the blood plasma ratio at 60 min, 1 μM came out at 8.73.

These data come from patent publication US20250312469A1 (CANGET BIOTEKPHARMA, priority 2024, published 2025).
